Experimental data as given in article PMC7464788, “Modification and Targeted Design of N-Terminal Truncates Derived from Brevinin with Improved Therapeutic Efficacy” (Biology, 2020).
In brackets after ≈: the same amount, converted by molar mass. Positions of bridges follow the written chain, without caps; N, C: chain ends. Residues, ends and D or L forms follow the SMILES beside them. No end group written: not given here.

Key:
[1] = system: Escherichia coli (NCTC10418); conditions: cited from earlier work
Excerpt: (§1) Although B1PLC had better activity against bacteria, its potency was slightly lower than that of B1PLB against fungi. As we know, the more positive charge of B1PLC (Table 1) could contribute to an enhanced electrostatic interaction with the negatively charged bacterial cell envelope. Therefore, to try to combine the properties of the two peptides, we designed B1A by substitution of the Asn residue at po ...

[2] = system: Staphylococcus aureus (NCTC10788); conditions: cited from earlier work
Excerpt: as §1

[3] = system: Candida albicans (NCYC1467); conditions: cited from earlier work
Excerpt: as §1

[4] = system: methicillin-resistant S. aureus (MRSA) (NCTC12493); assay type: cell-based, Staphylococcus aureus
Method: (§2) The antimicrobial assay was carried out to detect the minimum inhibitory concentration (MIC) and the minimum bactericidal concentration (MBC) of each peptide on the microbes as described previously. Seven different microorganisms were used in the assay: Gram-positive bacteria Staphylococcus aureus (NCTC10788), Enterococcus faecalis (NCTC12697), and methicillin-resistant S. aureus (MRSA) (NCTC12493); Gram-negative bacteria Escherichia coli (NCTC10418), Pseudomonas aeruginosa (ATCC27853), and Klebsiella pneumoniae (ATCC 43816); and fungi Candida albicans (NCYC1467). Bacterial strains were inoculated and grown to mid-log phase in fresh Mueller Hinton broth (MHB) at 37 °C for overnight, then bacteria inoculum suspensions were subcultured until reaching the logarithmic growth phase by measuring OD of the cultures at wavelength 550 nm. Then, 99 µL bacteria and 1 µL peptide solution were mixed in the 96-wells microplate. For positive and negative controls, the bacteria were incubated with antibiotics (Norfloxacin for Gram-positive bacteria and Gram-negative bacteria; Amphotericin B for fungi) solution and MHB medium, respectively. Experiments were repeated five times in five replicates.

[5] = system: horse erythrocytes; test: Haemolytic assay; assay type: cell-based; conditions: 2% (v/v) horse red blood cells, 37 °C, 2 h; 1% Triton-X 100 positive control; three times in five replicates
Method: The haemolytic assay was carried out to detect the cytotoxicity of each peptide to erythrocytes obtained from fresh defibrinated horse blood as described before. An appropriate volume of horse blood solution was collected via washing and transferring until the supernatant was clear. Then, 2% (v/v) suspension of red blood cells were incubated with peptide at 37 °C for 2 h. For positive and negative controls, the red blood cells were incubated with 1% (v/v) Triton-X 100 and Phosphate-buffered saline (PBS) solution, respectively. The 10% of maximal haemolysis concentration (HC10, μM) was utilised to assess the haemolytic potential. Experiments were repeated three times in five replicates.

[6] = system: Escherichia coli (NCTC10418); assay type: cell-based
Method: as §2

[7] = system: Enterococcus faecalis (NCTC12697); assay type: cell-based
Method: as §2

[8] = system: Pseudomonas aeruginosa (ATCC27853); assay type: cell-based
Method: as §2

[9] = system: Klebsiella pneumoniae (ATCC 43816); assay type: cell-based
Method: as §2

[10] = system: Staphylococcus aureus (NCTC10788); assay type: cell-based
Method: as §2

[11] = system: Candida albicans (NCYC1467); assay type: cell-based
Method: as §2

Molecule | Antimicrobial activity against E. coli [1] | Antimicrobial activity against S. aureus [2] | Antimicrobial activity against C. albicans [3] | MBC MRSA [4] [µM] | MIC MRSA [4] [µM] | HC10 (concentration causing 10% red cell lysis) [5] [µM] | MBC E. coli [6] [µM] | MIC E. coli [6] [µM] | MBC E. faecalis [7] [µM] | MIC E. faecalis [7] [µM] | MBC P. aeruginosa [8] [µM] | MIC P. aeruginosa [8] [µM] | MBC K. pneumoniae [9] [µM] | MIC K. pneumoniae [9] [µM] | MBC S. aureus [10] [µM] | MBC C. albicans [11] [µM] | MIC C. albicans [11] [µM]
FLPLIAGLAANFLPKIFCAITKKC (disulfide 18-24 (inferred)) [Peptide B1PLB, Brevinin-1PLb, brevinin-1 peptide from the skin secretions of Lithobates palustris (Rana palustris)] | potent antimicrobial activity | potent antimicrobial activity | potent antimicrobial activity |  |  |  |  |  |  |  |  |  |  |  |  |  | 
CC[C@H](C)[C@@H]1NC(=O)[C@H](C)NC(=O)[C@@H](NC(=O)[C@H](Cc2ccccc2)NC(=O)[C@@H](NC(=O)[C@H](CCCCN)NC(=O)[C@H](Cc2c[nH]c3ccccc23)NC(=O)[C@@H]2CCCN2C(=O)[C@H](CC(C)C)NC(=O)[C@H](Cc2ccccc2)NC(=O)[C@H](CCCCN)NC(=O)[C@@H](N)CCCCN)[C@@H](C)CC)CSSC[C@@H](C(=O)O)NC(=O)[C@H](CCCCN)NC(=O)[C@H](CCCCN)NC(=O)[C@H]([C@@H](C)O)NC1=O [KKWB2] (H-KKFLPWKIFCAITKKC-OH; disulfide 10-16) |  |  |  | 32 (≈ 62.5 µg/mL) | 8 (≈ 15.6 µg/mL) | 140.04 | 32 (≈ 62.5 µg/mL) | 16 (≈ 31.2 µg/mL) | 512 (≈ 1000 µg/mL) | 256 (≈ 500 µg/mL) | 64 (≈ 125 µg/mL) | 64 (≈ 125 µg/mL) | 32 (≈ 62.5 µg/mL) | 32 (≈ 62.5 µg/mL) | 16 (≈ 31.2 µg/mL) | 32 (≈ 62.5 µg/mL) | 8 (≈ 15.6 µg/mL)
FLPVIAGVAAKFLPKIFCAITKKC (disulfide 18-24 (inferred)) [Peptide B1PLC, brevinin-1PLc, brevinin-1 peptide from the skin secretions of Lithobates palustris (Rana palustris)] | potent antimicrobial activity | potent antimicrobial activity | potent antimicrobial activity |  |  |  |  |  |  |  |  |  |  |  |  |  | 
CC[C@H](C)[C@@H]1NC(=O)[C@H](C)NC(=O)[C@@H](NC(=O)[C@H](Cc2ccccc2)NC(=O)[C@@H](NC(=O)[C@H](CCCCN)NC(=O)[C@@H]2CCCN2C(=O)[C@H](CC(C)C)NC(=O)[C@H](Cc2ccccc2)NC(=O)[C@H](CCCCN)NC(=O)[C@H](C)NC(=O)[C@H](C)NC(=O)[C@H](CC(C)C)NC(=O)CNC(=O)[C@H](C)NC(=O)[C@@H](NC(=O)[C@H](CC(C)C)NC(=O)[C@@H]2CCCN2C(=O)[C@H](CC(C)C)NC(=O)[C@@H](N)Cc2ccccc2)[C@@H](C)CC)[C@@H](C)CC)CSSC[C@@H](C(=O)O)NC(=O)[C@H](CCCCN)NC(=O)[C@H](CCCCN)NC(=O)[C@H]([C@@H](C)O)NC1=O [Peptide B1A] (H-FLPLIAGLAAKFLPKIFCAITKKC-OH; disulfide 18-24) |  |  |  | 32 (≈ 83.4 µg/mL) | 16 (≈ 41.7 µg/mL) | 1.576 | 32 (≈ 83.4 µg/mL) | 8 (≈ 20.8 µg/mL) | 32 (≈ 83.4 µg/mL) | 8 (≈ 20.8 µg/mL) | 64 (≈ 167 µg/mL) | 32 (≈ 83.4 µg/mL) | 16 (≈ 41.7 µg/mL) | 16 (≈ 41.7 µg/mL) | 8 (≈ 20.8 µg/mL) | 8 (≈ 20.8 µg/mL) | 4 (≈ 10.4 µg/mL)
